How the values were obtained:
[1] = test system: nerve cell prepared from cerebral cortex of fetus of SD rat; assay: Measurement of nerve cell death suppressive activity; assay type: cell-based; settings: rat cerebral cortex nerve cells, LY294002 50 μM final concentration, 24 hr, viable cell number by Cell Titer Glo; read-out: IC50 value (concentration of the test compound needed for 50% inhibition of nerve cell death)
Description: The cerebral cortex was taken from fetus of TP-14 pregnant SD rat (CLEA Japan, Inc.), and nerve cell was prepared using nerve cell culture system (SUMITOMO BAKELITE). The cerebral cortex was placed in enzymatic solution of cell dispersion solution kit (SUMITOMO BAKELITE), and incubated at 37° C. for 30 min. The cells were suspended by pipetting, and collected by centrifugation at 1000 rpm for 5 min. The supernatant was removed, and cell dispersion solution (SUMITOMO BAKELITE) was added. The cells were suspended by pipetting. The cell suspension was placed on removing solution (SUMITOMO BAKELITE), and the cells were collected by centrifugation at 1000 rpm for 5 min. The supernatant was removed, and the cells were suspended in nerve cell culture medium (SUMITOMO BAKELITE). 100 μl of the suspension was seeded on a poly D lysine•laminin 96 well plate (Becton, Dickinson and Company) at 1×10^5 cells/well. Then, the plate was cultured in a carbon dioxide gas incubator at 37° C. for 4 days. A test compound (50 μl) was added on the 96 well plate, and 50 μL/well of LY294002 was added at 50 μM of the final concentration. Then, the plate was cultured in a carbon dioxide gas incubator for 24 hr. The medium (100 μl) was sampled, and 100 μl of Cell Titer Glo solution (Promega) was added to count the viable cell number. […]

[2] = molecular target: T1, recombinant GSK3β enzyme (human GSK3β) (Homo sapiens, UniProt P49841); assay: Measurement of GSK3β inhibitory activity; assay type: biochemical; settings: glycogen synthase peptide substrate, Kinase Glo luminescence, read-out: IC50 (concentration of test compound needed for 50% inhibition of luminescent intensity), GSK3β inhibitory activity
T1 construct: FLAG (N); made in house; host or cells: Sf-21 insect cells, recombinant baculovirus (pFASTBAC1 / BAC-TO-BAC)
Method in brief: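 FLAG-purified human GSK3β expressed in baculovirus-infected Sf-21 cells; reaction with 2.5 μM ATP (stock solution) at room temperature, 30 min. Residual ATP measured by Kinase-Glo luminescence; IC50 as concentration inhibiting 50% of luminescent intensity.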

H4IIE-C3 cells = assay: Measurement of sugar release suppressive action using cultured hepatocyte; assay type: cell-based; settings: Rattus norvegicus, H4IIEC3, 3 h, test compound 10 μM, Dexamethasone 500 nM and 8CPT-cAMP 0.1 mM, GSK3β inhibitor free group is 100%, read-out: sugar release suppressive activity (released glucose content, relative value)
Description: H4IIE-C3 cells (from rat liver) were seeded on 24 well or 96 well collagen coated plate (manufactured by Falcon), and cultured in Dulbecco's Modified Eagle Medium (DMEM: manufactured by GIBCO) containing 10% FBS, 25 mM Glucose until the cells became sub-confluent. Then, the cells were starvation treated with DMEM containing 0% FBS and 5.6 mM glucose. The medium was exchanged to DMEM containing test compound adjusted to 10 μM and sugar production stimulant (Dexamethasone (500 nM), 8CPT-cAMP (0.1 mM)), and the cells were pretreated for 5 hr. After washing with PBS, the cells were cultured in Phenol Red-free, Glucose-free DMEM containing the test compound and sugar production stimulant for 3 hr, and the glucose content released in the medium was measured. A glucose measurement kit (A-22189) manufactured by Molecular Probes was used for the glucose measurement. The sugar release suppressive activity is shown in a relative value when the released glucose content of a GSK3β inhibitor free group is 100%.

T1 sequence (P49841 whole entry): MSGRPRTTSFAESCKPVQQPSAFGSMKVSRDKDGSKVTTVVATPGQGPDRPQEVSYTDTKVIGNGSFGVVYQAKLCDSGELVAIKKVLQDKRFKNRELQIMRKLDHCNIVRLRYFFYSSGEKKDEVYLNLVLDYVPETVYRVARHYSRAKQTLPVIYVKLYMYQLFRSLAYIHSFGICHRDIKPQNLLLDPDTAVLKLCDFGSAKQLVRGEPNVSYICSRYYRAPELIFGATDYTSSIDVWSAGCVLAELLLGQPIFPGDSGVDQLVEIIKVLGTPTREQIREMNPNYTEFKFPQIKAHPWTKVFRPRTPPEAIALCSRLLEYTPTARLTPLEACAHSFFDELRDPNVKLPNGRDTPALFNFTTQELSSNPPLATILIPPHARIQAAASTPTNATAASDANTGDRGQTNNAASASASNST

SMILES	IC50 [2] [nM]	IC50 [1] [nM]	activity at 10 µM (H4IIE-C3 cells) [%]
O=C(Nc1c[nH]nc1C(=O)NC1CCCC1)c1cnccn1 [Example 79, N-{3-[(cyclopentylamino)carbonyl]-1H-pyrazol-4-yl}pyrazine-2-carboxamide]		70	
O=C(Nc1c[nH]nc1C(=O)Nc1ccccc1)c1cnccn1 [Example 98, N-{3-[(phenylamino)carbonyl]-1H-pyrazol-4-yl}pyrazine-2-carboxamide]		440	
CC(C)(CO)CNC(=O)c1n[nH]cc1NC(=O)c1ccccn1 [Example 470, N-(3-(((3-hydroxy-2,2-dimethylpropyl)amino)carbonyl)-1H-pyrazol-4-yl)pyridine-2-carboxamide]			75
CC(C)(C)OCCCNC(=O)c1n[nH]cc1NC(=O)c1ccccn1 [Example 455, N-(3-(((3-tert-butoxypropyl)amino)carbonyl)-1H-pyrazol-4-yl)pyridine-2-carboxamide]			79
Cc1cccc(C(=O)Nc2c[nH]nc2C(=O)NCCC#N)n1 [Example 387, N-(3-(((2-cyanoethyl)amino)carbonyl)-1H-pyrazol-4-yl)-6-methylpyridine-2-carboxamide]	< 100		69
Cc1cccc(C(=O)Nc2c[nH]nc2C(=O)NCCCOC(C)C)n1 [Example 430, N-(3-(((3-isopropoxypropyl)amino)carbonyl)-1H-pyrazol-4-yl)-6-methylpyridine-2-carboxamide]			76
Cc1ccc(C(=O)Nc2c[nH]nc2C(=O)NCC(F)(F)F)cn1 [Example 480, 6-methyl-N-(3-(((2,2,2-trifluoroethyl)amino)carbonyl)-1H-pyrazol-4-yl)pyridine-3-carboxamide]			69
O=C(Nc1c[nH]nc1C(=O)NCc1ccccc1)c1ccc(OC(F)(F)F)cc1 [Example 117, N-benzyl-4-{[4-(trifluoromethoxy)benzoyl]-amino}-1H-pyrazole-3-carboxamide]	157		
O=C(CNC(=O)c1n[nH]cc1NC(=O)c1ccccn1)c1ccccc1 [Example 359, N-(3-(((2-oxo-2-phenylethyl)amino)carbonyl)-1H-pyrazol-4-yl)pyridine-2-carboxamide]	< 100		
O=C(Nc1c[nH]nc1C(=O)NCc1ccccc1)c1ccccn1 [Example 337, N-(3-((benzylamino)carbonyl)-1H-pyrazol-4-yl)pyridine-2-carboxamide]	< 100		
CCOCC(=O)Nc1c[nH]nc1C(=O)NCCc1ccccc1 [Example 125, 4-[(ethoxyacetyl)amino]-N-(2-phenylethyl)-1H-pyrazole-3-carboxamide]	< 100		
O=C(NC1CCCC1)c1n[nH]cc1NC(=O)C1CCCC1 [Example 367, N-cyclopentyl-4-(cyclopentanecarbonylamino)-1H-pyrazole-3-carboxamide]	< 100		
CC(=O)Nc1cccc(C(=O)Nc2c[nH]nc2C(=O)NCCSc2ccccc2)c1 [Example 376, 4-((3-(acetylamino)benzoyl)amino)-N-(2-(phenylthio)ethyl)-1H-pyrazole-3-carboxamide]	< 100		
Cc1ccc(C(=O)Nc2c[nH]nc2C(=O)NC2CCCC2)cn1 [Example 364, N-(3-((cyclopentylamino)carbonyl)-1H-pyrazol-4-yl)-6-methylnicotinamide]	< 100		
COCCNC(=O)c1n[nH]cc1NC(=O)c1cccc(NC(C)=O)c1 [Example 370, 4-((3-(acetylamino)benzoyl)amino)-N-(2-methoxyethyl)-1H-pyrazole-3-carboxamide]	< 100		
O=C(Nc1c[nH]nc1C(=O)NCCc1ccccc1)c1ccccc1 [Example 131, 4-benzoylamino-N-(2-phenylethyl)-1H-pyrazole-3-carboxamide]	< 100		
CNC(=O)c1n[nH]cc1NC(=O)c1ccccn1 [Example 346, N-(3-((methylamino)carbonyl)-1H-pyrazol-4-yl)pyridine-2-carboxamide]	< 100		
O=C(Cc1c[nH]c2ccccc12)Nc1c[nH]nc1C(=O)NCCc1ccccc1 [Example 130, 4-[(1H-indol-3-ylacetyl)amino]-N-(2-phenylethyl)-1H-pyrazole-3-carboxamide]	128		
O=C(Nc1c[nH]nc1C(=O)NCc1ccccc1)c1ccccc1 [Example 109, 4-(benzoylamino)-N-benzyl-1H-pyrazole-3-carboxamide]	< 100		

Further lines, with some results ahead:

IC50 [2] [nM]	SMILES	IC50 [1] [nM]	activity at 10 µM (H4IIE-C3 cells) [%]
< 100	N#CCCNC(=O)c1n[nH]cc1NC(=O)c1ccccc1 [Example 420, 4-(benzoylamino)-N-(2-cyanoethyl)-1H-pyrazole-3-carboxamide]		62
< 100	Cc1cccc(C(=O)Nc2c[nH]nc2C(=O)NCCC#N)c1 [Example 413, N-(2-cyanoethyl)-4-(3-methylbenzoylamino)-1H-pyrazole-3-carboxamide]		64
< 100	N#CCCNC(=O)c1n[nH]cc1NC(=O)c1cccs1 [Example 416, N-(2-cyanoethyl)-4-(2-thienylcarbonylamino)-1H-pyrazole-3-carboxamide]		62
< 100	COc1ccccc1CC(=O)Nc1c[nH]nc1C(=O)NC1CCCC1 [compound 068]		
< 100	COc1ccc(C(=O)Nc2c[nH]nc2C(=O)NCc2ccco2)cc1 [compound 155]		
< 100	O=C(CCc1ccccc1)Nc1c[nH]nc1C(=O)NC1CCCC1 [compound 067]		
< 100	N#CCCNC(=O)c1n[nH]cc1NC(=O)c1ccco1 [Example 412, N-(2-cyanoethyl)-4-(2-furoylamino)-1H-pyrazole-3-carboxamide]		74
< 100	O=C(Nc1c[nH]nc1C(=O)NC1CCCC1)c1cnccn1 [compound 079]		
< 100	Cc1cccc(C(=O)Nc2c[nH]nc2C(=O)NCCOC(C)C)n1 [Example 426, N-(3-(((2-isopropoxyethyl)amino)carbonyl)-1H-pyrazol-4-yl)-6-methylpyridine-2-carboxamide]		55
< 100	O=C(Nc1c[nH]nc1C(=O)NC1CCCC1)c1ccc(OC(F)(F)F)cc1 [compound 076]		
274	CS(=O)(=O)Nc1c[nH]nc1C(=O)NC1CCCC1 [compound 227, N-cyclopentyl-4-methanesulfonylamino-1H-pyrzole-3-carboxamide]		
< 100	Cc1cccc(C(=O)Nc2c[nH]nc2C(=O)NCCOc2ccc(F)cc2)n1 [Example 428]		
< 100	O=C(Nc1c[nH]nc1C(=O)NCCNc1ccccn1)c1ccccn1 [Example 397, N-(3-(((2-(pyridin-2-ylamino)ethyl)amino)carbonyl)-1H-pyrazol-4-yl)pyridine-2-carboxamide]		

— patent publication US20090156582A1, “Pyrazole Compound” (priority 2005, published 2009)
